In one test the target is T1, MAO-B (Rattus norvegicus, UniProt P19643).
T1 sequence (P19643 1-520): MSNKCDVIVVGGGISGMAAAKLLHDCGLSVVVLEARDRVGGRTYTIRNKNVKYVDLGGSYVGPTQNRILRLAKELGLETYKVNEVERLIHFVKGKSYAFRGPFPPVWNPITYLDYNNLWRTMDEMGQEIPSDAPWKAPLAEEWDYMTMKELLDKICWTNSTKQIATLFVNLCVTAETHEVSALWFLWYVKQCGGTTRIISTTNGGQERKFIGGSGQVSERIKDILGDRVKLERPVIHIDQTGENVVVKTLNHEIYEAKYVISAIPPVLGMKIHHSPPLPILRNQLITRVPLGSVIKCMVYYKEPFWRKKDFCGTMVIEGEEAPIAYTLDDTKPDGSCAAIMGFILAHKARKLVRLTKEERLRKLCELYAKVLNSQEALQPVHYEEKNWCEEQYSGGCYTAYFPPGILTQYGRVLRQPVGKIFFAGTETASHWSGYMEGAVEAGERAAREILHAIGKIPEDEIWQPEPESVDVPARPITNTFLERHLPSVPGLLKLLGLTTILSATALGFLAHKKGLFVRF
The test can be described thus: biochemical. It counts as biochemical. Here is the method: (§1) The aliphatic propargylamine inhibitors (from 1×10^-10 M to 1×10^-4 M) were preincubated with the MAO for 20 min. at ambient room temperature and then the residual enzyme activities were determined by addition of the substrates, followed by further incubation at 37° C. for 30 min. The enzymatic reactions were terminated by the addition of citric acid and the aldehyde products were extracted with toluene: ethyl acetate (1:1, v/v) and the radio-activities assessed in a scintillation counter.

For the next test, the target named is T2, MAO-A (Rattus norvegicus, UniProt P21396).
T2 sequence (P21396 1-526): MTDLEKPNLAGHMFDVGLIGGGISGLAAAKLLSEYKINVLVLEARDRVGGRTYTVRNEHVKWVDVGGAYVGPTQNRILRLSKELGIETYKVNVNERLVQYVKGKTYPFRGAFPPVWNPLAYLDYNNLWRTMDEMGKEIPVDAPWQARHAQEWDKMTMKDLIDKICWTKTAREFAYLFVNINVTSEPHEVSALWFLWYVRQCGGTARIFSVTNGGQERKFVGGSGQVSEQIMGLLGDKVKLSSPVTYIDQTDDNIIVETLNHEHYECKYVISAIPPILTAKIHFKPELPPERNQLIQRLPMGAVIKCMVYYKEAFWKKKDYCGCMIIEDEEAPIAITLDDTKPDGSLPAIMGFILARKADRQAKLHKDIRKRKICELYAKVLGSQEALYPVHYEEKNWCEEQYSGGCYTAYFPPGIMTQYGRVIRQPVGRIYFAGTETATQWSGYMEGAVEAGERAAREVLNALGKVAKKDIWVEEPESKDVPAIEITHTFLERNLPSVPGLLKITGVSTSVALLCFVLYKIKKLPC
The test can be described thus: biochemical. It counts as biochemical. The note with it: substrate 5-HT (5 × 10^-4 M); rat liver MAO, in vitro; average of at least 3 independent experiments. As to the method: as §1

For orientation: IC50 means the midpoint of a concentration-inhibition curve.

In the case of `C#CCN(C)C(C)CCC.Cl.O=C(O)C(=O)O` (stereo not drawn) [Example M-2-PP, N-(2-Pentyl)-N-methylpropargylamine hydrochloride and oxalate], the “Ratio MAO-A/MAO-B” value on MAO-B (rat, liver mitochondrial membranes) stood at 50. For the same compound, the results for the concentration for half-maximal inhibition (IC50) at MAO-B (read-out: PE IC50) and against MAO-A were 200 nM and 10 µM, respectively.

Values taken from US5508311A, “Aliphatic propargylamines as selective MAO-B inhibitors and as neuroprotective agents” (University of Saskatchewan, priority 1993, dated 1996).
